Experimental data from US12648986B2, “PLD for use in combination in the treatment of coronavirus” (PHARMA MAR, S.A., priority 2020, dated 2026).
Read-outs that look alike come from different tables or passages of the source.

Key:
SARS-CoV-2 [1] = experiment: Cytopathic effect on Vero E6 cells exposed to SARS-CoV-2 (CellTiter-Glo); assay type: cell-based; details: for IC50: read-out: mean IC50 value and SD, SARS-CoV-2-induced cytopathic effect
SARS-CoV-2 [2] = experiment: Vero E6 cells infected with SARS-CoV-2, direct quantitation of nucleocapsid (N) protein; assay type: cell-based; details: Severe acute respiratory syndrome coronavirus 2, Vero C1008, two studies, read-out: IC50, SARS-CoV-2 growth in vitro
SARS-CoV-2 [3] = experiment: SARS-CoV-2 replication in human stem cell-derived pneumocyte like cells; assay type: cell-based; details: 10 nM plitidepsin for 1 hour before infection, 48 hour incubation
Experimental: Several in vitro experiments aimed at determining the effect of plitidepsin on SARS-CoV-2 were carried out and are disclosed herein. […] In another study, human stem cell-derived pneumocyte like cells were prophylactically exposed to 10 nm plitidepsin for 1 hour and then infected with SARS-CoV-2 (4×10^4 plaque forming units). After a 48 hour incubation period, both antiviral and cytotoxic plitidepsin effects were determined.

SARS-CoV-2 [4] = experiment: Mouse model of adenovirus-mediated hACE2 infected with SARS-CoV-2; assay type: in vivo
SARS-CoV-2 [5] = experiment: K18-hACE2 transgenic mice infected with SARS-CoV-2; assay type: in vivo
CD45+ cells = experiment: Ex vivo cytokine expression in CD45+ cells from broncho-alveolar lavages of mice, LPS-B5 stimulation; details: cells from plitidepsin treated mice
Source text: An ex vivo study assessed the effect of plitidepsin on expression of the cytokines IL 6, IL 10, and TNFα in the lungs of mice.

[6] = system: human stem cell-derived pneumocyte like cells; details: 10 nm plitidepsin, 48 hour incubation
eEF1A = eEF1A (Oryctolagus cuniculus, UniProt Q71V39); experiment: Binding of 14C-plitidepsin to purified eEF1A; details: eEF1A purified from rabbit muscle
eEF1A, sequence (Q71V39 whole entry): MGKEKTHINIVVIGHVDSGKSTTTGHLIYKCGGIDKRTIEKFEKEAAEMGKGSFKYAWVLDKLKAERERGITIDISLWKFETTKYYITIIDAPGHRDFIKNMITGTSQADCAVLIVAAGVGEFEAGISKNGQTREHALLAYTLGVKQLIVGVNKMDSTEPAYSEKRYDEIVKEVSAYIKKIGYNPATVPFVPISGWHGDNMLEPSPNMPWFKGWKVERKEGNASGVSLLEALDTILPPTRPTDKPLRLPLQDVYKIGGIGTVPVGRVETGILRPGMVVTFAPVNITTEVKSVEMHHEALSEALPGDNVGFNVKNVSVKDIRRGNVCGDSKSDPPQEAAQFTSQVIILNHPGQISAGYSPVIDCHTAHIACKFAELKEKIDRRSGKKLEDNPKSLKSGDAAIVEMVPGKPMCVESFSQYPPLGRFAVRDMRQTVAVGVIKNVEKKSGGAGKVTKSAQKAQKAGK

[7] = Severe acute respiratory syndrome coronavirus 2, Vero C1008, 72 h

CCN(CCO)CCCC(C)Nc1ccnc2cc(Cl)ccc12 (stereo not shown) [Hydroxychloroquine, hydroxychloroquine]
IC50 (SARS-CoV-2 [1]; [7]): 9300 ± 11100 nM
cytotoxic effects of the drug at concentrations inhibiting viral-induced cytopathic effect (Vero E6 cells; Vero E6, absence of virus): no cytotoxic effects of the drug were observed

CC[C@H](C)[C@H]1NC(=O)[C@@H](NC(=O)[C@@H](CC(C)C)N(C)C(=O)[C@@H]2CCCN2C(=O)C(C)=O)[C@@H](C)OC(=O)[C@H](Cc2ccc(OC)cc2)N(C)C(=O)[C@@H]2CCCN2C(=O)[C@H](CC(C)C)NC(=O)[C@@H](C)C(=O)[C@H](C(C)C)OC(=O)C[C@@H]1O [PLD, (−)-(3S,6R,7S,10R,11S,15S,17S,20S,25aS)-11-hydroxy-3-(4-methoxybenzyl)-2,6,17-trimethyl-15-(1-methylethyl)-7-[[(2R)-4-methyl-2-[methyl[[(2S)-1-(2-oxopropanoyl)pyrrolidin-2-yl]carbonyl]amino]pentanoyl]amino]-10-[(1S)-1-methylpropyl]-20-(2-methylpropyl)tetradecahydro-15H-pyrrolo[2,1-f]-[1,15,4,7,10,20]dioxatetrazacyclotricosine-1,4,8,13,16,18,21(17H)-heptaone]
IC50 (SARS-CoV-2 [1]; [7]): 51 ± 20 nM
IC50 (SARS-CoV-2 [2]): 0.7 to 3 nM
replication of SARS-CoV-2 (SARS-CoV-2 [3]): completely eliminated replication of SARS-CoV-2
antiviral effects in vivo (SARS-CoV-2 [4]): potent antiviral effects
antiviral effects in vivo (SARS-CoV-2 [5]): potent antiviral effects
IL 6, IL 10 and TNFα in CD45+ cells upon LPS-B5 stimulation vs nonstimulated controls (CD45+ cells): failed to show a marked increase
cytotoxic effects of the drug at concentrations inhibiting viral-induced cytopathic effect (Vero E6 cells; Vero E6, absence of virus): no cytotoxic effects of the drug were observed
cytotoxicity against pneumocyte like cells [6]: no observable cytotoxicity
affinity for eEF1A (eEF1A): high affinity
rate of dissociation from eEF1A (eEF1A): low rate of dissociation

MDL28170 [MDL 28170]
IC50 (SARS-CoV-2 [1]; Vero E6, single drug, 3 days post infection, independent experiments with two replicates each): 140 ± 60 nM
cytotoxic effects of the drug at concentrations inhibiting viral-induced cytopathic effect (Vero E6 cells; Vero E6, absence of virus): no cytotoxicity of the drug was observed

nelfinavir mesylate hydrate
capacity to inhibit SARS-CoV-2-induced cytopathic effect (SARS-CoV-2 [1]; Vero E6, 100 μM to 0.0512 nM): confirmed to have in vitro capacity to inhibit SARS-CoV-2-induced cytopathic effect
cytotoxic effects of the drug at concentrations inhibiting viral-induced cytopathic effect (Vero E6 cells): no cytotoxicity of the drug was observed
